Consider one compound from patent US6906097B2, “8-azaprostaglandin analogs as agents for lowering intraocular pressure” (Allergan, Inc., priority 2002, dated 2005).

By EC50 is commonly meant the concentration that produces a half-maximal response. Usually IC50 stands for the concentration needed to halve the response being measured. Lower therefore signals greater potency.

Where only a bound is given, the exact number is not on record here.

Assay [1] addresses T1, hEP1 (Homo sapiens, UniProt P34995).
T1 construct: expressed in transfected cells
T1 sequence (P34995 1-402): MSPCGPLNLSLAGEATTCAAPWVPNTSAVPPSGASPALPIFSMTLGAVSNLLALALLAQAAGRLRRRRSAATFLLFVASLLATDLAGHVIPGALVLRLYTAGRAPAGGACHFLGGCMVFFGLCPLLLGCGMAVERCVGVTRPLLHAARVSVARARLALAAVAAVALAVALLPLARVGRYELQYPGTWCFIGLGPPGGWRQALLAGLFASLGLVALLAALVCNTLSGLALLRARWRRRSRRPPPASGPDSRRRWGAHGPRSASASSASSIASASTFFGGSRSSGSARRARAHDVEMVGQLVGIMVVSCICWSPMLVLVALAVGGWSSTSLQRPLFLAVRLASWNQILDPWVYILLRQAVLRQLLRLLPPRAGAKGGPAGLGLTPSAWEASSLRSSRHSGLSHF
The experiment in a line: Functional data, human recombinant EP1 receptor stable transfectants. It counts as cell-based. As for the experimental part: (§1) Human Recombinant EP1, EP2, EP3, EP4, FP, TP, IP and DP Receptors: Stable Transfectants
(§2) Plasmids encoding the human EP1, EP2, EP3, EP4, FP, TP, IP and DP receptors were prepared by cloning the respective coding sequences into the eukaryotic expression vector pCEP4 (Invitrogen). The pCEP4 vector contains an Epstein Barr virus (EBV) origin of replication, which permits episomal replication in primate cell lines expressing EBV nuclear antigen (EBNA-1). It also contains a hygromycin resistance gene that is used for eukaryotic selection. The cells employed for stable transfection were human embryonic kidney cells (HEK-293) that were transfected with and express the EBNA-1 protein. These HEK-293-EBNA cells (Invitrogen) were grown in medium containing Geneticin (G418) to maintain expression of the EBNA-1 protein. HEK-293 cells were grown in DMEM with 10% fetal bovine serum (FBS), 250 μg ml^−1 G418 (Life Technologies) and 200 μg ml^−1 gentamicin or penicillin/streptomycin.
(§3) For transfection, the cells were grown to 50-60% confluency on 10 cm plates. The plasmid pCEP4 incorporating cDNA inserts for the respective human prostanoid receptor (20 μg) was added to 500 μl of 250 mM CaCl2. HEPES buffered saline×2 (2×HBS, 280 mM NaCl, 20 mM HEPES acid, 1.5 mM Na2 HPO4, pH 7.05-7.12) was then added dropwise to a total of 500 μl, with continuous vortexing at room temperature. After 30 min, 9 ml DMEM were added to the mixture. The DNA/DMEM/calcium phosphate mixture was then added to the cells, which had been previously rinsed with 10 ml PBS. The cells were then incubated for 5 hr at 37° C. in humidified 95% air/5% CO2. The calcium phosphate solution was then removed and the cells were treated with 10% glycerol in DMEM for 2 min. The glycerol solution was then replaced by DMEM with 10% FBS. The cells were incubated overnight and the medium was replaced by DMEM/10% FBS containing 250 μg ml^−1 G418 and penicillin/streptomycin. The following day hygromycin B was added to a final concentration of 200 μg ml^−1.
(§4) Ten days after transfection, hygromycin B resistant clones were individually selected and transferred to a separate well on a 24 well plate. At confluence each clone was transferred to one well of a 6 well plate, and then expanded in a 10 cm dish. Cells were maintained under continuous hygromycin selection until use.

The target in assay [2] is T1, hEP1. As to the kind of experiment: Radioligand binding, hEP1. The following applies: [3H]PGE2 competition. As to the method: as §1
as §2, with “HEK-293 cells were grown in DMEM with 10% fetal bovine serum (FBS), 250 μg ml^−1 G418 (Life Technologies) and 200 μg ml^−1 gentamicin or penicillin/streptomycin.” left out
Radioligand binding studies on plasma membrane fractions prepared for cells stably transfected with the cat or human receptor were performed as follows. […] The pellet was then resuspended in TME buffer to provide a final protein concentration of 1 mg/ml, as determined by Bio-Rad assay. […]
The binding of [^3H](N) PGE2 (specific activity 165 Ci/mmol) was determined in duplicate and in at least 3 separate experiments. […] Competition studies were performed using a final concentration of 2.5 or 5 nM [^3H](N) PGE2 and non-specific binding was determined with 10^−5 M unlabelled PGE2.

The target of the next assay is T2, hTP (Homo sapiens, UniProt P21731).
T2 construct: expressed in transfected cells
T2 sequence (P21731 1-343): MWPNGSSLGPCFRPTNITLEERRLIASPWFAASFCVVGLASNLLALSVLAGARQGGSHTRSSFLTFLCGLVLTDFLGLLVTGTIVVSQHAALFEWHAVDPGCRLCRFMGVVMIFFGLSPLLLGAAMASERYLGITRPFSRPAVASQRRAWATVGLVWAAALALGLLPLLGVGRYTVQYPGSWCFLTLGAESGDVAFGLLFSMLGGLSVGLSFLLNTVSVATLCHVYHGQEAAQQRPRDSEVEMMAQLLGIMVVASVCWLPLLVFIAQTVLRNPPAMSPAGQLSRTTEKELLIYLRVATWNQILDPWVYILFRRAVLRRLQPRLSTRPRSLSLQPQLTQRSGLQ
The experiment in a line: Functional data, human recombinant TP receptor stable transfectants. It counts as cell-based. As for the experimental part:
as §1, §2, §3, §4

Turning to `O=C(O)CCCCCCN1C(=O)CC[C@@H]1CCC(O)Cc1cccc(Cl)c1` (stereo partly drawn) [Example 1, 7-[2S-[3R-Hydroxy-4-(chloro-phenyl)-butyl]-5-oxo-pyrrolidin-1-yl]-heptanoic acid], the EC50 at hEP1 [1] and at hTP was more than 10 µM each time. At hEP1 [2], this compound had an IC50 of 5.8 µM.
